Laboratory results reported in patent publication US20220324865A1 (Bayer Aktiengesellschaft, priority 2018, published 2022).
Where a name gives a salt, the structure may show the parent alone.

Target: T1, human EP3 receptor (Homo sapiens, UniProt P43115)
T1 construct: expressed in transfected cells; host or cells: CHO K1 (Chinese Hamster Ovary), stably co-transfected with Galpha16 and mitochondrial clytin
T1 sequence (P43115 1-390): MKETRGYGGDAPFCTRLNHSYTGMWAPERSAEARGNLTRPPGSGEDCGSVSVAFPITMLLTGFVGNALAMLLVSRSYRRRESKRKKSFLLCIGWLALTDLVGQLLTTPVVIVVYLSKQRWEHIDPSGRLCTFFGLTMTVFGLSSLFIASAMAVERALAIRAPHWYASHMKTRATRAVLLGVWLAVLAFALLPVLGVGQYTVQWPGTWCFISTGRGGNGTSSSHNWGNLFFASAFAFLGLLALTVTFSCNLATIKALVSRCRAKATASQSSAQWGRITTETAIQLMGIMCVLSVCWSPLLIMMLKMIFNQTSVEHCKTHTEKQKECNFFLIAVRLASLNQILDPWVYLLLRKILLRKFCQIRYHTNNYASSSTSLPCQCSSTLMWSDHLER
Test: Cellular in vitro assay for determining EP3 receptor activity (human EP3 cell line, sulprostone-stimulated calcium luminescence)
Type: cell-based
Settings: CHO cells expressing human EP3 and mitochondrial Clytin; antagonist mode, sulprostone at EC50; read-out: EP3 CHO mtCLY ANTAG IC50
Outline: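 Antagonist activity was measured as inhibition of the luminescent calcium signal elicited by EC50 sulprostone, following 10 min compound pretreatment. The cell line was recombinant CHO K1 co-expressing human EP3, Gα16 and the photoprotein Clytin, reconstituted with coelenterazine.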

Structure (SMILES) | IC50 [nM]
Cc1cccc2ncc(-c3cn4nc(C(=O)NC5(C)CCS(=O)(=O)C5)c(C(C)C)c4c(=O)[nH]3)cc12 (stereo not shown) [Example 4-17, 3-Isopropyl-N-(3-methyl-1,1-dioxothiolan-3-yl)-6-(5-methyl-3-quinolyl)-4-oxo-5H-pyrazolo[1,5-a]pyrazine-2-carboxamide] | 2.45
COc1ccc([C@@H](C)NC(=O)c2cc3c(=O)[nH]c(-c4ccc5c(c4F)OCCO5)cn3n2)cn1 [Example 1-108, 6-(5-Fluoro-2,3-dihydro-1,4-benzodioxin-6-yl)-N-[(1R)-1-(6-methoxpyridin-3-yl)ethyl]-4-oxo-4,5-dihydropyrazolo[1,5-a]pyrazine-2-carboxamide] | 2.5
O=C(N[C@H](CN1CCOCC1)c1ccccc1)c1cc2c(=O)[nH]c(-c3ccc4ccccc4c3)cn2n1 [Example 1-7, N-[(1S)-2-(Morpholin-4-yl)-1-phenylethyl]-6-(naphthalen-2-yl)-4-oxo-4,5-dihydropyrazolo[1,5-a]-pyrazine-2-carboxamide formic acid salt] | 1.7
O=C(N[C@@H](c1ccc(F)cc1)C(F)(F)CO)c1nn2cc(-c3cc(F)c(Cl)cc3F)[nH]c(=O)c2c1C1CC1 [6-585] | 3
COc1ccccc1C(C)NC(=O)c1nn2cc(-c3cnc4cccc(C)c4c3)[nH]c(=O)c2c1C(C)C (stereo not shown) [Example 4-4, 3-Isopropyl-N-[1-(2-methoxyphenyl)ethyl]-6-(5-methyl-3-quinolyl)-4-oxo-5H-pyrazolo[1,5-a]pyrazine-2-carboxamide] | 2.45
Cc1ccc(-c2cn3nc(C(=O)N[C@@H](c4ccc(F)cc4)C(F)(F)CO)c(C(F)(F)C(F)(F)F)c3c(=O)[nH]2)cc1F [6-491] | 0.58
Cc1ccc(-c2cn3nc(C(=O)NC(C(C)(C)O)C(F)(F)F)c(C4CC4)c3c(=O)[nH]2)cc1F (racemic) [6-394] | 6.65
C[C@@H](NC(=O)c1cc2c(=O)[nH]c(-c3cnc4ccccc4c3)cn2n1)c1ccc(F)cc1 [6-62] | 3.13
COc1cc(-c2cn3nc(C(=O)N[C@@H](c4ccc(F)cc4)C(F)(F)CO)c(C4CC4)c3c(=O)[nH]2)ccc1Cl [6-486] | 2.1
CN1CC(NC(=O)c2nn3cc(-c4ccc(Cl)c(C(F)F)c4)[nH]c(=O)c3c2C2CC2)(c2ccc(F)cc2)C1 [6-665] | 3.1
CCc1ccc(C(C)NC(=O)c2nn3cc(-c4cnc5cccc(C)c5c4)[nH]c(=O)c3c2C(C)C)cc1 (stereo not shown) [Example 4-9, N-[1-(4-Ethylphenyl)ethyl]-3-isopropyl-6-(5-methyl-3-quinolyl)-4-oxo-5H-pyrazolo[1,5-a]pyrazine-2-carboxamide] | 3.7
Cc1ccc(-c2cn3nc(C(=O)N[C@@H](c4ccc(F)cc4)C(F)(F)CO)c(C(F)(F)F)c3c(=O)[nH]2)cc1Cl [6-157] | 0.92
O=C(NCCc1ccccc1F)c1cc2c(=O)[nH]c(-c3ccc4ccccc4c3)cn2n1 [Example 2-9, N-[2-(2-Fluorophenyl)ethyl]-6-(2-naphthyl)-4-oxo-4,5-dihydropyrazolo[1,5-a]pyrazine-2-carboxamide] | 3.65
Cc1ccc(-c2cn3nc(C(=O)N[C@H](C)CO)c(C4CC4)c3c(=O)[nH]2)cc1C [Example 1-154, 3-Cyclopropyl-6-(3,4-dimethylphenyl)-N-[(2R)-1-hydroxpropan-2-yl]-4-oxo-4,5-dihydropyrazolo-[1,5-a]pyrazine-2-carboxamide] | 2.6
COc1ccc(C2(NC(=O)c3nn4cc(-c5ccc(Cl)c(C)c5)[nH]c(=O)c4c3C3CC3)CN(C)C2)cc1 [6-303] | 2.9
CN1CC(NC(=O)c2cc3c(=O)[nH]c(-c4ccc5c(c4)CCC5)cn3n2)(c2ccc(F)cc2)C1 [Example 1-96, 6-(2,3-Dihydro-1H-inden-5-yl)-N-[3-(4-fluorophenyl)-1-methylazetidin-3-yl]-4-oxo-4,5-dihydropyrazolo[1,5-a]pyrazine-2-carboxamide] | 2.65
CC[C@@H](C)NC(=O)c1nn2cc(-c3ccc(C)c(C)c3)[nH]c(=O)c2c1C(C)C [Example 1-140, N-[(2R)-Butan-2-yl]-6-(3,4-dimethylphenyl)-4-oxo-3-(propan-2-yl)-4,5-dihydropyrazolo[1,5-a]-pyrazine-2-carboxamide] | 1.95
Cc1cc(-c2cn3nc(C(=O)N[C@@H](c4ccc(F)cc4)C(F)(F)CO)c(C(F)(F)F)c3c(=O)[nH]2)ccc1Cl [Example 1-171, 6-(4-Chloro-3-methylphenyl)-N-[(1S)-2,2-difluoro-1-(4-fluorophenyl)-3-hydroxpropyl]-4-oxo-3-(trifluoromethyl)-4,5-dihydropyrazolo[1,5-a]pyrazine-2-carboxamide] | 1.03
COC[C@@H](NC(=O)c1nn2cc(-c3ccc(C)c(Cl)c3)[nH]c(=O)c2c1C(F)(F)F)c1ccccc1 [6-177] | 0.67
O=C(NC(c1ccccc1)C(F)F)c1cc2c(=O)[nH]c(-c3ccc4c(c3F)OCCO4)cn2n1 (stereo not shown) [Example 1-110, N-(2,2-Difluoro-1-phenylethyl)-6-(5-fluoro-2,3-dihydro-1,4-benzodioxin-6-yl)-4-oxo-4,5-dihydro-pyrazolo[1,5-a]pyrazine-2-carboxamide] | 1.01

Structure (SMILES) | IC50 [nM]
O=C(N[C@H](CCO)c1ccc(F)cc1)c1cc2c(=O)[nH]c(-c3cnc4ccccc4c3)cn2n1 [6-11] | 4.65
O=C(NC(CO)c1ccc(F)cc1)c1cc2c(=O)[nH]c(-c3ccc4ccccc4c3)cn2n1 (stereo not shown) [Example 1-61, N-[1-(4-Fluorophenyl)-2-hydroxyethyl]-6-(2-naphthyl)-4-oxo-5H-pyrazolo[1 ,5-a]pyrazine-2-carboxamide] | 4.2
CC(C)(C)CNC(=O)c1cc2c(=O)[nH]c(-c3ccc4ccccc4c3)cn2n1 [Example 2-11, N-(2,2-Dimethylpropyl)-6-(2-naphthyl)-4-oxo-4,5-dihydropyrazolo[1,5-a]pyrazine-2-carboxamide] | 7.15
Cc1c(C(=O)NC(c2cccc(F)c2)C(F)F)nn2c(C)c(-c3ccc4ccccc4c3)[nH]c(=O)c12 (stereo not shown) [Example 3-72, N-[2,2-Difluoro-1-(3-fluorophenyl)ethyl]-3,7-dimethyl-6-(2-naphthyl)-4-oxo-5H-pyrazolo[1,5-a]pyrazine-2-carboxamide] | 2.1
Cc1c(C(=O)NC(c2ccc(F)cc2)C(C)C)nn2c(C)c(-c3ccc4ccccc4c3)[nH]c(=O)c12 (stereo not shown) [Example 3-41, N-[1-(4-Fluorophenyl)-2-methylpropyl]-3,7-dimethyl-6-(2-naphthyl)-4-oxo-5H-pyrazolo[1,5-a]pyrazine-2-carboxamide] | 3.95
Cc1ccc(-c2cn3nc(C(=O)NC(c4ccc(C(F)(F)F)cc4)C(C)(C)O)c(C4CC4)c3c(=O)[nH]2)cc1C (single isomer, unassigned) [6-458] | 2.15
COc1ccc(C(CCO)NC(=O)c2cc3c(=O)[nH]c(-c4ccc(C(F)(F)F)c(C)c4)cn3n2)cc1 (stereo not shown) [6-31] | 8.03
Cc1cc(-c2cn3nc(C(=O)N[C@@H](c4ccc(F)cc4)C(C)(C)O)c(C(F)(F)F)c3c(=O)[nH]2)ccc1F [6-648] | 2.77
O=C(N[C@@H]1CCN(CC(F)(F)F)C1)c1nn2cc(-c3ccc4ccccc4c3)[nH]c(=O)c2c1C(F)(F)F (racemic) [6-521] | 2.23
C[C@@H](NC(=O)c1cc2c(=O)[nH]c(-c3ccc4cccc(F)c4c3)cn2n1)c1ccc(F)cc1 [6-38] | 1.45
Cc1ccc(-c2cn3nc(C(=O)NCC(N)C(F)(F)F)c(C4CC4)c3c(=O)[nH]2)cc1F (racemic) [6-395] | 6.6
Cc1ccc(-c2cn3nc(C(=O)NC(CN(C)C)c4ccc(F)cc4)c(C4CC4)c3c(=O)[nH]2)cc1C (single isomer, unassigned) [6-446] | 8.05
COC[C@H](NC(=O)c1cc2c(=O)[nH]c(-c3ccc4c(c3)OCCO4)cn2n1)c1ccccc1 [6-46] | 2.43
Cc1cccc2ncc(-c3cn4nc(C(=O)N[C@H](CCO)c5ccc(F)cc5)c(C(C)C)c4c(=O)[nH]3)cc12 [Example 1-56, N-[(1R)-1-(4-Fluorophenyl)-3-hydroxypropyl]-6-(5-methylquinolin-3-yl)-4-oxo-3-(propan-2-yl)-4,5-dihydropyrazolo[1,5-a]pyrazine-2-carboxamide] | 0.985
Cc1ncc(-c2cn3nc(C(=O)N[C@@H](c4ccc(F)cc4)C(C)(C)O)c(C4CC4)c3c(=O)[nH]2)cc1Cl [6-579] | 0.86
O=C(N[C@H]1c2ccccc2C[C@@H]1O)c1nn2cc(-c3ccc4ccccc4c3)[nH]c(=O)c2c1C(F)(F)F [Example 1-78, N-[(1S,2S)-2-Hydroxy-2,3-dihydro-1H-inden-1-yl]-6-(naphthalen-2-yl)-4-oxo-3-(trifluoromethyl)-4,5-dihydropyrazolo[1,5-a]pyrazine-2-carboxamide] | 1.06
CC[C@@H](C)NC(=O)c1nn2cc(-c3cnc4cccc(C)c4c3)[nH]c(=O)c2c1C(F)(F)F [6-547] | 7.8
Cc1ccc(-c2cn3nc(C(=O)N[C@@H](c4ccc(F)cc4)C(F)(F)CO)c(C(F)(F)C(F)(F)F)c3c(=O)[nH]2)cc1Cl [6-487] | 0.67
O=C(NC1(c2ccc(F)cc2)CC1)c1cc2c(=O)[nH]c(-c3ccc4ccccc4c3)cn2n1 [6-18] | 1.75
CN1CC(NC(=O)c2nn3cc(-c4ccc5ccccc5c4)[nH]c(=O)c3c2C2CC2)(c2ccc(F)cc2)C1 [Example 1-82, 3-Cyclopropyl-N-[3-(4-fluorophenyl)-1-methylazetidin-3-yl]-6-(naphthalen-2-yl)-4-oxo-4,5-dihydropyrazolo[1,5-a]pyrazine-2-carboxamide] | 4.6
